Assay results from paper PMC11892739, “Site-specific molecular glues for the 14-3-3/Tau pS214 protein–protein interaction via reversible covalent imine tethering” (RSC Medicinal Chemistry, 2025).

Target: T1, 14-3-3γ/Tau pS324 complex (Homo sapiens, UniProt P61981)
T1 construct: made in house; host or cells: NiCo21 (DE3) E. coli
Assay: Differential scanning fluorimetry of 14-3-3γ with Tau pS324 peptide and compounds
Assay type: binding
Conditions: compound 30 equiv., Tau pS324 10 equiv.
Experimental: Fig. 5 a Phospho-site selective 14-3-3/Tau PPI stabilization. b SF250μM of selected compounds for stabilization of the 14-3-3γ complex with Tau pS214 and Tau pS324 peptides based on the internal DMSO reference. Mean of two separately performed experiments (see ESI ^† Fig. S9 for the corresponding binding curves). c Differential scanning fluorimetry assay results. Identified melting temperatures (Tm) of 14-3-3γ in the presence of the Tau pS214 or pS324 peptide and compounds 1 and 18. […]
chromatography (HisTrap high performance cartridges, Cytiva). […] Dialyzed protein was concentrated to ∼40 mg/mL, analyzed by Q -Tof LC/MS, and aliquots were flash -frozen for storage at −80 °C. […]
DSF was performed using 40 µl samples containing 2.5 µM 14 -3-3ζ, 25 µM Tau peptide (Tau pS2, Tau pS214 or Tau pS324), […] (1% DMSO) and 5x ProteoOrange (Lumiprobe, 5000x stock in DMSO) in 10 mM HEPES, 150 mM NaCl, 50 µM TCEP (pH 7.4). […] Fluorescence intensity was determined using excitation ( λem=525/20 nm) and emission ( λex=570/20 nm) filters.
Based on these melting curves, the negative derivative melting curve is obtained from which the melting temperature Tm was determined. All described melting temperatures are based on two or three independent experiments, from which the average and standard deviations were determined. […]

T1 sequence (P61981 whole entry, other chains not shown): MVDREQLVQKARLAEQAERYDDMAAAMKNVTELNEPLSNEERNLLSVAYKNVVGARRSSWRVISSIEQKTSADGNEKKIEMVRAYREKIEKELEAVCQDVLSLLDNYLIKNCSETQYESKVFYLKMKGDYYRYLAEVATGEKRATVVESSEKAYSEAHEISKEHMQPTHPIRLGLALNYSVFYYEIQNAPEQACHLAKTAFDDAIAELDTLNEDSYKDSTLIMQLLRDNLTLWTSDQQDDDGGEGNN

increase in 14-3-3γ melting temperature on addition of compound, Tau pS324 complex	SMILES
~0.2 °C	CCc1ccc(-c2nccn2-c2ccc(C=O)c(Br)c2)cc1 [Compound 18]
~0.6 °C	O=Cc1ccc(-n2ccnc2-c2ccccc2)cc1Br [Compound 1]
